# In patent publication US9867794B2, “Regulation of osteopontin” (Pathologica LLC, priority 2007, dated 2018):
# Where “and” joins values, the source holds several entries; their conditions need not be identical. Identical values can stand only once.
# What was measured:
# [1] = tested on: SIVmac251; test: SIV-infected, CD8-depleted rhesus macaques treated with MGBG: disease; assay type: in vivo
# Method: These monkeys were then treated with MGBG as described.
# [2] = tested on: SGNE1; test: Microarray analysis of mononuclear cells, SGNE1; assay type: cell-based, human; conditions: for SGNE1 signal +, Average: 10 μM MGBG
# Method: Blood samples were obtained from HIV infected patients (N=9) with positive viral load and reduced CD4 counts, and non-HIV infected, healthy controls (N=6). Blood was collected into heparin anticoagulant tubes and mononuclear cells were isolated by Percoll gradient centrifugation. The cells from each sample were split into 2: one-half receives MGBG at concentration of 10 μM and the other half received no treatment. All samples were then cultured overnight in RPMI media with 10% fetal bovine serum at 37° C. under non-adherent conditions. The next day cells were collected by centrifugation, washed one time with PBS, and lysed by resuspension in TRIZOL, and total RNA was prepared according to manufacturer's instructions (Invitrogen, Carlsbad, Calif.). […] The RNA was then amplified for microarray analysis using a 2 cycle amplification protocol according to the manufacturer's instructions (Affymetrix, Santa Clara, Calif.). The amplified RNAs were then hybridized to Human Genome U133 plus 2.0 microarrays (Affymetrix) and expression data was obtained using an Affymetrix scanner and GCOS protocols. Microarray data was analyzed with GeneSpring Microarray Suite. Results were normalized using a set of 100 probe sets determined by the manufacturer to have relatively invariant expression across most cell types.
# [3] = tested on: Human Osteopontin (OPN); test: Osteopontin ELISA of PBMC cell culture supernatants (CCS); assay type: cell-based; conditions: for average OPN level in CCS: fifth day
# Source text: Peripheral Blood Mononuclear Cells (PBMCs) were isolated from patients diagnosed with Amyotrophic Lateral Sclerosis (ALS), Alzheimer's Disease (AD), Human Immunodeficiency Virus (HIV), Breast Cancer, AIDS Dementia, and healthy donors. The heparinised blood was mixed with equal volumes of sterile phosphate-buffered saline (Ca^++, Mg^++ free PBS) and layered over Percoll (Amersham Biosciences, Piscataway, N.J.) at 1.087 g/ml. The cells were centrifuged and the mononuclear cell layer was collected. The PBMCs were cultured in a concentration of 1×10^6 cells/ml in non-adherent conditions in polypropylene tubes containing complete media (RPMI 1640, 10% fetal bovine serum (HyClone, Logan, Utah), 1% Sodium Pyruvate) and incubated in a 5% CO2, 37° C. humidified incubator. The cells were grown in the presence of 0 μM, 0.1 μM, 1 μM, 10 μM, or 100 μM MGBG plus complete media and the cell culture supernatants (CCS) were isolated on the fifth day and frozen at −20° C. until ready to be tested. Human Osteopontin (OPN) levels were measured with the Human Osteopontin ELISA kit (R&D Systems, Inc., Minneapolis, Minn.) according to manufacturer's instructions. The CCS were tested in duplicate and the Magellan v. 4.0 software (Salzburg, Austria) was used to analyze the results. The average OPN levels (ng/ml) in 0 μM, 0.1 μM, 1 μM, 10 μM, and 100 μM MGBG were measured. The results are depicted in FIGS. 3-7 as a graph comparing diseased sample with normal sample. […] The solid lines represent diseased cells and the dashed lines represent normal cells.
# [4] = tested on: PBMCs; test: Cell viability of PBMC cultures when CCS were collected; assay type: cell-based, human; conditions: each MGBG concentration (0.1-100 μM), when the CCS were collected
# [5] = tested on: HeLa cell; test: Migration assay, HeLa cell invasion into a Matrigel matrix; assay type: cell-based; conditions: 10 μM MGBG
# Method: Additionally, cells being targeted by MGBG were investigated. […] To elucidate the effects of MGBG and OPN on cell motility, migration assays were conducted. MGBG at 10 μM inhibited macrophage Osteopontin production from >200 ng/mL to nondetectable levels while simultaneously inhibiting HeLa cell invasion into a Matrigel matrix.
# [6] = tested on: FCGR1a; test: Quantitative RT-PCR, unsorted mononuclear cells, FCGR1A; assay type: cell-based, human
# Method: (§1) To evaluate the effect of MGBG on gene expression, blood samples were obtained from patients (N=18, 10 HIV-infected and 8 Healthy Controls). Mononuclear cells were isolated via Percoll gradient centrifugation. The cells were split into two tubes, one treated with 10 μM of MGBG and the other non-treated. The cells were then cultured overnight in RPMI media plus 10% fetal bovine serum at 37 C under non-adherent conditions, collected, lysed using Trizol solution, and total RNA prepared according to manufacturer's instructions (Invitrogen, Carlsbad, Calif.).
# (§2) Approximately 200 ng of total RNA prepared from each sample was converted to cDNA using the First Strand cDNA Synthesis Kit for RT-PCR [AMV] kit (Roche Applied Diagnostics, Indianapolis, Ind.) according to manufacturer's instructions. Around 5 ng of cDNA sample was then used for PCR performed on a LightCycler (Roche Applied Diagnostics, Indianapolis, Ind.) using the LightCycler FastStart DNA Master SYBR Green I kit. PCR conditions are as follows: 1 cycle of denaturation at 95° C. for 10 minutes, followed by 45 cycles of 95° C. for 10 seconds, 68° C. for 10 seconds, and 72° C. for 16 seconds.
# (§3) The sequences of gene-specific primers evaluated are listed below. All samples were also amplified with the human β-actin LightCycler-Primer set (Roche Diagnostics).
# [7] = tested on: CD14+ cells; test: Yield of CD14+ cells in culture, flow cytometry; assay type: cell-based, human; conditions: 10 μM MGBG; for % Reduction 14, Average: 5th day
# [8] = tested on: LILRA1; test: Quantitative RT-PCR, unsorted mononuclear cells, LILRA1; assay type: cell-based, human
# Method: as §1, §2, §3
# [9] = 10 μM MGBG overnight, individual samples
structure (smiles),measurement,setting,value
"CC(/C=N/NC(=N)N)=N\NC(=N)N [MGBG, 1,1′ [methylethanediylidene]dinitrilodiguanidine]",SIV-associated macrophages in the frontal cortex,"[1]; 4 doses of MGBG, compared to non-treated",absence of SIV-associated macrophages
same,macrophage infiltration in brains,"[1]; FIG. 9, treated infected macaques",no pathology was observed
same,illness (AIDS and dementia),"[1]; both trials, treated animals",none of the treated animals became ill
same,SIVE or DRG infiltration,"[1]; first trial, 200, 300, 400 mg/m^2 weekly, 2 treated animals",no indications of SIVE or DRG infiltration
same,SIV disease,"[1]; second trial, bi-weekly 250 mg/m^2, 2 treated animals",no evidence for SIV disease
same,"SGNE1 signal +, Average",[2]; average of HIV samples,23
same,"SGNE1 signal +, Average","[2]; average of control samples (C6-, M6-177)",13
same,"SGNE1 fold change, ON/MGBG ratio (down-regulation)","[2]; 10 μM, individual donor samples",3.3 fold and 7.4 fold and 1.9 fold and 14.4 fold and 53.3 fold and 4.7 fold and 9.3 fold and 58.8 fold and 2.4 fold and 3.0 fold and 45.5 fold and 159.8 fold and 10.1 fold and 63 fold and 0.8 fold
same,samples with 2 fold or greater reductions in SGNE1 signal,[2]; of the 15 samples evaluated,13
same,SGNE1 signal +,"[2]; presence of 10 μM MGBG overnight, individual donor samples",17 and 7 and 10 and 13 (3×) and 12 and 2 (2×) and 3 and 45 and 14 and 8 and 79 and 44
same,average OPN level in CCS,"[3]; AD PBMCs (n=1), 0.1 μM MGBG",0.477 ng/mL
same,average OPN level in CCS,"[3]; AD PBMCs (n=1), 1 μM MGBG",0.201 ng/mL
same,average OPN level in CCS,"[3]; AD PBMCs (n=1), 10 μM MGBG",0.136 ng/mL
same,average OPN level in CCS,"[3]; AD PBMCs (n=1), 100 μM MGBG",0 ng/mL
same,average CCS OPN value,"[3]; AIDS Dementia PBMCs (AIRL2005-374), 10 μM MGBG",0.8905
same,average CCS OPN value,"[3]; ALS PBMCs (n=2), 10 μM MGBG",17.669
same,average OPN level in CCS,"[3]; HIV PBMCs (n=2), 0.1 μM MGBG",11.833 ng/mL
same,average OPN level in CCS,"[3]; HIV PBMCs (n=2), 1 μM MGBG",3.481 ng/mL
same,average OPN level in CCS,"[3]; HIV PBMCs (n=2), 10 μM MGBG",0.447 ng/mL
same,average OPN level in CCS,"[3]; HIV PBMCs (n=2), 100 μM MGBG",0 ng/mL
same,average OPN level in CCS,"[3]; breast cancer PBMCs (n=3), 0.1 μM MGBG",20.89 ng/mL
same,average OPN level in CCS,"[3]; breast cancer PBMCs (n=3), 1 μM MGBG",8.87 ng/mL
same,average OPN level in CCS,"[3]; breast cancer PBMCs (n=3), 10 μM MGBG",2.12 ng/mL
same,average OPN level in CCS,"[3]; breast cancer PBMCs (n=3), 100 μM MGBG",0.84 ng/mL
same,average OPN level in CCS,"[3]; healthy/normal PBMCs (n=3), 0.1 μM MGBG",9.69 ng/mL
same,average OPN level in CCS,"[3]; healthy/normal PBMCs (n=3), 1 μM MGBG",4.85 ng/mL
same,average OPN level in CCS,"[3]; healthy/normal PBMCs (n=3), 10 μM MGBG",1.07 ng/mL
same,average OPN level in CCS,"[3]; healthy/normal PBMCs (n=3), 100 μM MGBG",0.14 ng/mL
same,cell viability,[4],at least 75%
same,HeLa cell invasion into a Matrigel matrix,[5],inhibiting
same,Fold change FCGR1A by QRT-PCR,[6]; [9],−1.61 fold and −1.84 fold and −1.01 fold and −1.72 fold and −3.73 fold and 1.72 fold and 5.94 fold and 2.39 fold and −1.97 fold and 19.03 fold and 1.16 fold and −0.41 fold and −0.43 fold and −10.78 fold and −17.15 fold and −2.22 fold and −3.86 fold and 1.05 fold
same,FCGR1A AVERAGE,"[6]; 10 μM MGBG, all samples",2.25 fold
same,FCGR1A MAX,"[6]; 10 μM MGBG, all samples",19.03 fold
same,FCGR1A MIN,"[6]; 10 μM MGBG, all samples",−17.15 fold
same,% Reduction 14,"[7]; 5th day of culture, individual donor samples (HIV or healthy)",26% (2×) and 21% and 53% and 76% and 31% and <0% and 58%
same,"% Reduction 14, Average",[7]; average of HIV samples,46.8%
same,"% Reduction 14, Average",[7]; average of healthy samples,28.5%
same,Fold change LILRA1 by QRT-PCR,[8]; [9],−1.91 fold and 1.01 fold and −3.10 fold and 1.31 fold and −2.87 fold and 1.52 fold and −3.97 fold and −2.27 fold and 1.11 fold and 1.34 fold and −4.79 fold and −1.31 fold and 1.28 fold and 13.45 fold
same,LILRA1 AVERAGE,"[8]; 10 μM MGBG, all samples",1.71 fold
same,LILRA1 MAX,"[8]; 10 μM MGBG, all samples",13.45 fold
same,LILRA1 MIN,"[8]; 10 μM MGBG, all samples",−4.79 fold
